Experiment [1] deals with N-α-acetyl-Lys-D-ala-D-ala. Put plainly: Quartz crystal microbalance (QCM) detection of vancomycin on grafted peptide receptor. The class given is binding. The settings on record: water/glucose solution compared with water; 1 µM and 40 µM; flow rate 40 µL/min. The protocol:
Quartz crystal microbalance experiments were performed using SRS Stanford Research Systems (QCM 200 5MHz). The surfaces of gold-plated quartz crystal on chips were prepared as follows: gold-plated quartz crystals were initially immersed in a piranha solution (70/30) for 3 minutes to regenerate the surfaces. The resulting crystals were repeatedly and intensively rinsed with water. The crystals were subsequently grafted with mPEG thiols (O-(2-Mercaptoethyl)-O'-methyl-hexa(ethylene glycol) (polypure) 10^-3 M in ethanol. The grafted crystals were subsequently rinsed with ethanol in an ultrasonic bath, and dried with N2. The grafted crystals were subsequently grafted with NHS ester succinimidyl, 2 mM in acetonitrile sprayed on the surfaces and the surfaces were placed in front of a UV lamp during 2 hours. The functionalized surfaces of the crystals were subsequently rinsed with acetonitrile in an ultrasonic bath; dried with N2, and then subsequently grafted with N-α-acetyl-Lys-D-ala-D-ala in pure water and in water with 5% of glucose (vol.).
All QCM experiments used a flow rate of 40 µL/min. The quality of all the grafting has been tested at each step, by contact angle measurements and IR spectra. All of them were satisfactory. Figures 6, 7 and 8 represent QCM data plot showing delta frequency (MHz) change over time of vancomycin detection. […]

The next experiment relates to Nα(Ac)-L-Lys-D-Ala-D-Ala. The experiment can be described thus: FTIR-ATR biosensor binding of vancomycin to immobilized peptide receptor. The settings on record: for vancomycin binding: 50 µg/mL; for Kd: single site binding isotherm, R^2 = 0.99, ± standard error. The protocol:
On the thus functionalized ATR element a peptide was bound. Peptide binding onto the device was obtained in one channel of measurement at a time by incubation for 3 hours of N-α-acetyl-Lys-D-Ala-D-Ala peptide, or another peptide as provided in Figure 2, at a concentration of 2 mg/mL in phosphate buffered saline (PBS) at room temperature. The measurement channel was then rinsed with milliQ water for 30 min.
The binding of the peptide was monitored by FTIR-ATR spectroscopy by using the BIA-ATR device. Attenuated Total Reflection Fourier Transformed Infrared (ATR-FTIR) Spectra were obtained on a Brüker IFS55 FTIR spectrophotometer (Ettlingen, Germany) equipped with a MCT detector (broad band 12000-420 cm^-1, liquid N2 cooled, 24h hold time) at a resolution of 8 cm^-1 with an aperture of 3.5 mm and acquired in the double-sided, forward-backward mode. Two levels of zero filling of the interferogram prior to Fourier transform allowed encoding the data every 1 cm^-1. The spectrometer was continuously purged with dry air (Whatman 75-62, Haverhill, MA, USA). Triangular-shaped germanium crystals (4.8 x 4.8 x 45 mm^3) were purchased from Biosentech (Belgium) and accommodated on the beam condenser from a Golden Gate Micro-ATR from Specac. A top plate with a groove fitting the crystal was used in replacement of the diamond-bearing plate (WOW Company, Belgium). With this geometry, a single reflection was obtained and more than 10 lanes can be used on a crystal.
Using a biosensor constructed in Example 1, a solution of vancomycin in pure water (obtained from the laboratory MilliQ system) at a concentration of at 50 µg/mL is passed over one channel of the crystal at a flow-rate of 20 µl/min. FTIR-ATR spectra were recorded continuously and the vancomycin binding is monitored by following the appearance of its characteristic signal at 1230 cm^-1. This monitoring of this signal is advantageous as it is isolated in the spectra, i.e. not superimposed to other signals due to ligand and/or receptor. The intensity of the peak at 1230 cm^-1 thus allowed the quantitative measurement of vancomycin binding.
The N-α(Ac)-L-Lys-D-Ala-D-Ala biosensor as described in Example 1 was used. A solution of vancomycin in phosphate buffered saline (50 µg/mL) was used in the binding assay. The quantitative analysis was performed by measuring the surface on the IR spectra comprised between 1253 and 1218 cm^-1. The spectra were recorded every 30 sec during 5 min. […] The results are depicted in Figure 1.
The unexpected effect on the binding affinity of vancomycin versus X-D-Ala-D-Ala receptor immobilized on the ATR optical element, has been further observed by using the following detection media: 3 mM aqueous solution of Na2HPO4, 10 mM aqueous solution of Na2HPO4, 154 mM aqueous solution of NaCl, and a PBS solution made from 3 mM Na2HPO4 and 50 mM NaCl.
The Nα(Ac)-L-Lys-D-Ala-D-Ala biosensor described in Example 1 was used. The assays were performed three times successively using the same channel, and this has been repeated at three different days (n = 9) using another channel for each day. Solutions of vancomycin in 5% glucose at various concentrations (from 0 to 25 µg/mL) were passed over the crystal at a flow rate of 20 µL/min. The vancomycin binding was analyzed by the integration of the peak at 1230 cm^-1 (10 spectra recorded every 30 sec), and normalized by referring to the 25 µg/mL concentration.
The spiked dialyzed serum samples were flown over a measurement channel on which the Nα(Ac)-L-Lys-D-Ala-D-Ala had been attached as described before in Example 1. The absorption band between 1259 and 1213 cm^-1 was quantified for each vancomycin concentration. The area of the band was reported as a function of vancomycin concentration. […] From the data reported in Figure 4 it follows that vancomycin binding can be monitored with precision in a concentration range which is relevant for medical application.

Take `CN[C@H](CC(C)C)C(=O)N[C@H]1C(=O)N[C@@H](CC(N)=O)C(=O)N[C@H]2C(=O)N[C@H]3C(=O)N[C@H](C(=O)N[C@H](C(=O)O)c4cc(O)cc(O)c4-c4cc3ccc4O)[C@H](O)c3ccc(c(Cl)c3)Oc3cc2cc(c3O[C@@H]2O[C@H](CO)[C@@H](O)[C@H](O)[C@H]2O[C@H]2C[C@](C)(N)[C@H](O)[C@H](C)O2)Oc2ccc(cc2Cl)[C@H]1O` [vancomycin]: the delta frequency shift entry in experiment [1] is recorded as “greater delta frequency was always observed in the presence of glucose”. In addition, the “amount of vancomycin detected” value with Nα(Ac)-L-Lys-D-Ala-D-Ala (50 µg/mL in phosphate buffered saline, compared to pure water, IR area 1253-1218 cm^-1) is “very weak”. In addition, the vancomycin binding result with Nα(Ac)-L-Lys-D-Ala-D-Ala (effect of phosphate (3 mM or 10 mM Na2HPO4, PBS) in detection medium) is listed as “totally prevents”; in the experiment with Nα(Ac)-L-Lys-D-Ala-D-Ala (effect of sodium chloride at physiological concentration (154 mM NaCl)) it was “partially inhibited”. Moreover, the Kd (in general, the free concentration of one partner at which half of the binding sites on the other are occupied at equilibrium, for simple one-to-one binding) on Nα(Ac)-L-Lys-D-Ala-D-Ala (in 5% glucose, band area 1259-1213 cm^-1) came to 13.7 ± 1.8 µM; on Nα(Ac)-L-Lys-D-Ala-D-Ala (in human serum dialyzed against 5% glucose), 7.3 ± 0.8 µM. The “vancomycin binding onto the receptor” value in the experiment with Nα(Ac)-L-Lys-D-Ala-D-Ala (in pure water) is “maximal”.

Source of the values: patent EP2490029A1, “Vancomycin analysis” (Université Catholique de Louvain, priority 2011, dated 2012).
